Experiments:
[1] = Compound stability in rat liver microsomes; type: in vitro ADME; conditions: for half-life at 5 μM: compound 5 μM, NADPH 1.0 mM, 37° C.; for CLint scaled at 5 μM: in vivo CLint extrapolated
Description: (§1) Human or rat liver microsomes incubations were conducted in duplicate in polypropylene tubes. The typical incubation mixtures consisted of human or rat liver microsomes (0.5 mg protein/mL), compounds of interest (5 μM) and NADPH (1.0 mM) in a total volume of 200 μL potassium phosphate buffer (PBS, 100 mM, pH 7.4). Compounds were dissolved in DMSO and diluted with PBS such that the final concentration of DMSO was 0.05%. The enzymatic reactions were commenced with the addition of protein after a 3-min preincubation and incubated in a water bath open to the air at 37° C. Reactions were terminated at various time points (0, 5, 10, 15, 30, 60 min) by adding equal volume of ice-cold acetonitrile. The samples were stored at −80° C. until LC/MS/MS assays.
(§2) The concentrations of compounds in the incubation mixtures of human or rat liver microsomes were determined by a LC/MS/MS method. The ranges of the linearity in the concentration range were determined for each tested compounds.
(§3) A parallel incubation was performed using denatured microsomes as the negative control, and reactions were terminated at various time points (0, 15, 60 min) after incubation at 37° C.
(§4) Dextromethorphan (70 μM) was selected as the positive control, and reactions were terminated at various time points (0, 5, 10, 15, 30, 60 min) after incubation at 37° C. Both positive and negative control samples were included in each assay to ensure the integrity of the microsomal incubation system.
(§5) The concentrations of compounds in human or rat liver microsome incubations were plotted as a percentage of the relevant zero time point control for each reaction. The in vivo CLint were extrapolated (ref.: Naritomi, Y.; Terashita, S.; Kimura, S.; Suzuki, A.; Kagayama, A.; and Sugiyama, Y.; Prediction of human hepatic clearance from in vivo animal experiments and in vitro metabolic studies with liver microsomes from animals and humans. Drug Metab. Dispos., 2001, 29: 1316-1324).

[2] = Compound stability in human liver microsomes; type: in vitro ADME; conditions: for half-life at 5 μM: compound 5 μM, NADPH 1.0 mM, 37° C.; for CLint scaled at 5 μM: in vivo CLint extrapolated
Description: as §1, §2, §3, §4, §5

[3] = Pharmacokinetics after intravenous and oral administration in rats; type: in vivo; conditions: for Clearance (CL) after iv dosing / AUC(0-t) / half-life / Vd: dose 1 mg/kg (Ex. 27: 0.72 mg/kg), iv dosing; for F: oral bioavailability; for AUC(0-t) / half-life / Vd: rat, plasma; for Vd: read-out: Vss
Description: The LC/MS/MS system used in the analysis consists of an Agilent 1200 Series vacuum degasser, binary pump, well-plate autosampler, thermostatted column compartment, the Agilent G6430 Triple Quadrupole Mass Spectrometer with an electrosprayionization (ESI) source. Quantitative analysis was carried out using MRM mode. The parameters for MRM transitions are in the Table A.
An Agilent XDB-C18, 2.1×30 mm, 3.5 μM column was used for the analysis. 5 μL of the samples were injected. Analysis condition: The mobile phase was 0.1% formic acid in water (A) and 0.1% formic acid in methanol (B). The flow rate was 0.4 mL/min. And the gradient of Mobile phase was in the Table B.
Alternatively, an Agilent 6330 series LC/MS/MS spectrometer equipped with G1312A binary pumps, a G1367A autosampler and a G1314C UV detector were used in the analysis. An ESI source was used on the LC/MS/MS spectrometer. The analysis was done in positive ion mode as appropriate and the MRM transition for each analyte was optimized using standard solution. A Capcell MP-C18 100×4.6 mm I.D., […] column (Phenomenex, Torrance, Calif., USA) was used during the analysis. The mobile phase was 5 mM ammonia acetate, 0.1% MeOH in water (A): 5 mM ammonia acetate, 0.1% MeOH in acetonitrile (B) (70:30, v/v). The flow rate was 0.6 mL/min. Column was maintained at ambient temperature. 20 μL of the samples were injected.
The compounds disclosed herein are assessed in pharmacokinetic studies in mice, rats, dogs or monkeys. The compounds are administered as a water solution, 2% HPMC+1% TWEEN®80 in water solution, 5% DMSO+5% solution in saline, 4% MC suspension or capsule. For the intravenous administration, the animals are generally given at 1 or 2 mg/kg dose. For the oral (p.o.) dosing, mice and rats are generally given 5 or 10 mg/kg dose, and dogs and monkeys are generally given 10 mg/kg dose. The blood samples (0.3 mL) are drawn at 0.25, 0.5, 1.0, 2.0, 3.0, 4.0, 6.0, 8.0, 12 and 24 h time points or 0.083, 0.25, 0.5, 1.0, 2.0, 4.0, 6.0, 8.0 and 24 h time points and centrifuged at 3,000 or 4000 rpm for 2 to 10 min. The plasma solutions are collected, and stored at −20° C. or −70° C. until analyzed by LC/MS/MS as described above.

[4] = target: JAK1 (h) (Homo sapiens (Human), UniProt P23458); test: JAK1 kinase assay (33P-ATP filter binding, Millipore); type: biochemical
Sequence of JAK1 (h) (P23458 whole entry): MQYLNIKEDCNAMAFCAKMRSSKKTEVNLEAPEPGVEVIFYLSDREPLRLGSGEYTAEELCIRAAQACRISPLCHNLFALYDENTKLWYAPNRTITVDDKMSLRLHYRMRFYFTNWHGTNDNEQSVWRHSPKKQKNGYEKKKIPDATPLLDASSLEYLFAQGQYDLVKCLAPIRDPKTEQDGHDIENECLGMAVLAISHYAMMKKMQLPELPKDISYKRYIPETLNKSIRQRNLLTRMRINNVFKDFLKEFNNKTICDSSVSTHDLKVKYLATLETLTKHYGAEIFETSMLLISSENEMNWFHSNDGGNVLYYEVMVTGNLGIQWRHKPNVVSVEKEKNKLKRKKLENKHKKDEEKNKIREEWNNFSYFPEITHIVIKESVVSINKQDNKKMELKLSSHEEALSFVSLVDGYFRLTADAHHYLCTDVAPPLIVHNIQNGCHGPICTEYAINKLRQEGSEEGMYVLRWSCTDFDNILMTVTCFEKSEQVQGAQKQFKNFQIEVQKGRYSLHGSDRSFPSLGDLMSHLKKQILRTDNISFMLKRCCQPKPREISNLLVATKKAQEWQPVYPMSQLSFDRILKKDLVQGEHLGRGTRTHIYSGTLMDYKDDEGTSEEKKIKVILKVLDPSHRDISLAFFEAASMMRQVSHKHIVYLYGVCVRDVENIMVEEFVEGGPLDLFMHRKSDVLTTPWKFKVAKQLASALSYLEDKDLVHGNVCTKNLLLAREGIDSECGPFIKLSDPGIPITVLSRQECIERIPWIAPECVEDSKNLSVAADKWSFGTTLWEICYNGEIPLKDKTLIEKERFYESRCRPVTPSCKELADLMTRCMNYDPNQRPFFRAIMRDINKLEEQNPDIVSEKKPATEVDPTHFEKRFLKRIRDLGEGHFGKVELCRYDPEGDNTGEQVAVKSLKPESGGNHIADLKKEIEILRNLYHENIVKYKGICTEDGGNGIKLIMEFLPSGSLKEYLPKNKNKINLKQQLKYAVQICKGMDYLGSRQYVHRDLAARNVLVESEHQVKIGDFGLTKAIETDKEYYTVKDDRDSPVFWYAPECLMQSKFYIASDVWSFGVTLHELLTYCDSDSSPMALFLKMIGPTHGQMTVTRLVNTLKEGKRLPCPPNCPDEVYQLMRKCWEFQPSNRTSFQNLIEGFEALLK
Description: Kinase assays can be performed by measurement of incorporation of γ-^33P ATP into immobilized myelin basic protein (MBP). High binding white 384 well plates (Greiner) are coated with MBP (Sigma #M−1891) by incubation of 60 μL/well of 20 μg/mL MBP in Tris-buffered saline (TBS; 50 mM Tris pH 8.0, 138 mM NaCl, 2.7 mM KCl) for 24 h at 4° C. Plates are washed 3× with 100 μL TBS. Kinase reactions are carried out in a total volume of 34 μL in kinase buffer (5 mM Hepes pH 7.6, 15 mM NaCl, 0.01% bovine gamma globulin (Sigma #I-5506), 10 mM MgCl2, 1 mM DTT, 0.02% TritonX-100). Compound dilutions are performed in DMSO and added to assay wells to a final DMSO concentration of 1%. Each data point is measured in duplicate, and at least two duplicate assays are performed for each individual compound determination. Enzyme is added to final concentrations of 10 nM or 20 nM, for example. A mixture of unlabeled ATP and γ-^33P ATP is added to start the reaction (2×10^6 cpm of γ-^33P ATP per well (3000 Ci/mmole) and 10 μM unlabeled ATP, typically. The reactions are carried out for 1 h at room temperature with shaking. Plates are washed 7× with TBS, followed by the addition of 50 μL/well scintillation fluid (Wallac). Plates are read using a Wallac Trilux counter. This is only one format of such assays; various other formats are possible, as known to one skilled in the art.
The above assay procedure can be used to determine the IC50 for inhibition and/or the inhibition constant, Ki. The IC50 is defined as the concentration of compound required to reduce the enzyme activity by 50% under the condition of the assay. The IC50 value is estimated by preparing a 10 point curve using a 1/2 log dilution series (for example, a typical curve may be prepared using the following compound concentrations: 3 μM, 1 μM, 0.3 μM, 0.1 μM, 0.03 μM, 0.01 μM, 0.003 μM, 0.001 μM, 0.0003 μM and 0 μM).
The kinase assays described herein were performed at Millipore UK Ltd, Dundee Technology Park, Dundee DD2 1SW, UK.

[5] = rat, liver microsomes, pH 7.4, Rat liver microsomes 0.5 mg protein/mL
[6] = rat, liver microsomes, pH 7.4, Rat liver microsomes
[7] = human, liver microsomes, pH 7.4, Human liver microsomes 0.5 mg protein/mL
[8] = human, liver microsomes, pH 7.4, Human liver microsomes
[9] = pH 7.4, Rat liver microsomes 0.5 mg protein/mL
[10] = pH 7.4, Human liver microsomes 0.5 mg protein/mL

SMILES | IC50 [4] | half-life at 5 μM [1, 9] | CLint scaled at 5 μM ([1]; pH 7.4, Rat liver microsomes) | half-life at 5 μM [2, 10] | CLint scaled at 5 μM ([2]; pH 7.4, Human liver microsomes) | half-life at 5 μM [1, 5] | CLint scaled at 5 μM [1, 6] | half-life at 5 μM [2, 7] | CLint scaled at 5 μM [2, 8] | Clearance (CL) after iv dosing [3] | F [3] | AUC(0-t) [3] | half-life [3] | Vd [3]
N#CCC(=O)N1CCC2(CCC(Nc3nc(Nc4cc(C5CC5)[nH]n4)ncc3Cl)CC2)CC1 [Ex. 54, 3-(9-((5-chloro-2-((5-cyclopropyl-1H-pyrazol-3-yl)amino)pyrimidin-4-yl)amino)-3-azaspiro[5.5]undecan-3-yl)-3-oxopropanenitrile] | – | – | – | – | – | 0.527 h | 78.6 mL/min/kg | 0.647 h | 44.8 mL/min/kg | – | – | – | – | –
Cc1cnc(Nc2cnn(C)c2)nc1NC1CN(C(=O)CC#N)CC12CCCC2 (stereo not drawn) [Ex. 8, 3-(4-((5-methyl-2-((1-methyl-1H-pyrazol-4-yl)amino)pyrimidin-4-yl)amino)-2-azaspiro[4.4]nonan-2-yl)-3-oxopropanenitrile] | 11 nM | – | – | – | – | – | – | – | – | 61.7 mL/min/kg | 17.5% | 272 ng·h/mL | 0.88 h | 2.85 L/kg
Cc1cnc(Nc2cnn(C)c2)nc1N(C)C1CCC2(CC1)CCN(C(=O)CC#N)CC2 [Ex. 23, 3-(9-(methyl(5-methyl-2-((1-methyl-1H-pyrazol-4-yl)amino)pyrimidin-4-yl)amino)-3-azaspiro[5.5]undecan-3-yl)-3-oxopropanenitrile] | – | – | – | – | – | 0.075 h | 552 mL/min/kg | 2.09 h | 13.9 mL/min/kg | – | – | – | – | –
CC(=O)N1CC2CC(Nc3nc(Nc4cc(C5CC5)[nH]n4)ncc3Cl)CC2C1 (stereo not drawn) [Ex. 53, 1-(5-((5-chloro-2-((5-cyclopropyl-1H-pyrazol-3-yl)amino)pyrimidin-4-yl)amino)hexahydrocyclopenta[c]pyrrol-2(1H)-yl)ethanone] | – | 0.385 h | 108 mL/min/kg | 4.44 h | 6.53 mL/min/kg | – | – | – | – | 55.2 mL/min/kg | 33.0% | 296 ng·h/mL | 1.02 h | 2.46 L/kg
CN(c1ccnc(Nc2cnn(C)c2)n1)C1CNCC12CCCC2 (stereo not drawn) [Ex. 1, N^4-methyl-N^2-(1-methyl-1H-pyrazol-4-yl)-N^4-(2-azaspiro[4.4]nonan-4-yl) pyrimidine-2,4-diamine] | – | 4.49 h | 9.23 mL/min/kg | 3.05 h | 9.49 mL/min/kg | – | – | – | – | 157 mL/min/kg | 44.39% | 103 ng·h/mL | 3.77 h | 40.3 L/kg
Cc1nn(C)cc1Nc1ncc(Cl)c(NC2CCC3(CC2)CCN(C(=O)CC#N)CC3)n1 [Ex. 57, 3-(9-((5-chloro-2-((1,3-dimethyl-1H-pyrazol-4-yl)amino)pyrimidin-4-yl)amino)-3-azaspiro[5.5]undecan-3-yl)-3-oxopropanenitrile] | 16 nM | – | – | – | – | – | – | – | – | – | – | – | – | –
CN(c1nc(Nc2cnn(C)c2)ncc1Cl)C1CCC2(CCNC2)CC1 (single isomer, unassigned) [Ex. 3.10A, 5-chloro-N^4-methyl-N^2-(1-methyl-1H-pyrazol-4-yl)-N^4-(2-azaspiro[4.5]decan-8-yl)pyrimidine-2,4-diamine] | – | – | – | – | – | 0.213 h | 194 mL/min/kg | 5.24 h | 5.53 mL/min/kg | 70.2 mL/min/kg | 19.06% | 216 ng·h/mL | 2.72 h | 13.5 L/kg

Further lines, with some results ahead:

IC50 [4] | half-life at 5 μM [1, 9] | CLint scaled at 5 μM ([1]; pH 7.4, Rat liver microsomes) | half-life at 5 μM [2, 10] | CLint scaled at 5 μM ([2]; pH 7.4, Human liver microsomes) | SMILES | half-life at 5 μM [1, 5] | CLint scaled at 5 μM [1, 6] | half-life at 5 μM [2, 7] | CLint scaled at 5 μM [2, 8] | Clearance (CL) after iv dosing [3] | F [3] | AUC(0-t) [3] | half-life [3] | Vd [3]
42 nM | – | – | – | – | CC(=O)N1CC2CC(Nc3nc(Nc4cnn(C)c4)ncc3C)CC2C1 (stereo not drawn) [Ex. 61, 1-(5-((5-methyl-2-((1-methyl-1H-pyrazol-4-yl)amino)pyrimidin-4-yl)amino)hexahydrocyclopenta[c]pyrrol-2(1H)-yl)ethanone] | – | – | – | – | – | – | – | – | –
55 nM | – | – | – | – | Cn1cc(Nc2nccc(NC3CCC4(CC3)CCN(C(=O)CC#N)C4)n2)cn1 (stereo not drawn) [Ex. 6, 3-(8-((2-((1-methyl-1H-pyrazol-4-yl)amino)pyrimidin-4-yl)amino)-2-azaspiro[4.5]decan-2-yl)-3-oxopropanenitrile] | – | – | – | – | – | – | – | – | –
– | 0.267 h | 155 mL/min/kg | 1.14 h | 25.4 mL/min/kg | COc1cnc(Nc2cc(C3CC3)[nH]n2)nc1NC1CC2CN(C(=O)CC#N)CC2C1 (stereo not drawn) [Ex. 52, 3-(5-((2-((5-cyclopropyl-1H-pyrazol-3-yl)amino)-5-methoxypyrimidin-4-yl)amino)hexahydrocyclopenta[c]pyrrol-2(1H)-yl)-3-oxopropanenitrile] | – | – | – | – | 84.2 mL/min/kg | 16.5% | 197 ng·h/mL | 0.32 h | 1.6 L/kg
– | 0.44 h | 94.1 mL/min/kg | 4.93 h | 5.87 mL/min/kg | Cn1cc(Nc2ncc(C#N)c(NC3CC4CN(C(=O)CC#N)CC4C3)n2)cn1 (stereo not drawn) [Ex. 67, 4-((2-(2-cyanoacetyl)octahydrocyclopenta[c]pyrrol-5-yl)amino)-2-((1-methyl-1H-pyrazol-4-yl)amino)pyrimidine-5-carbonitrile] | – | – | – | – | – | – | – | – | –

— patent US9403801B2 (Calitor Sciences, LLC, priority 2014, dated 2016)
